Assay results from patent US6723897B2, “Methods for controlling gibberellin levels” (Monsanto Technology, LLC, priority 1998, dated 2004).

Legend:
[1] = Particulate material present in solutions after mixing; assay type: physicochemical; details: for Particulate material present, 100X Diln w/water: 0.25 mg/ml compound in water; for solubility in water during imbibition: 0.25 mg/ml treatment solutions
Protocol: Each of the compounds noted above is weighed to the nearest 0.1 mg in a pre-tarred 1.5-ml polypropylene vial with a screw-top lid. Absolute ethanol is added to the weighed powder to prepare a 25 mg/ml solution. Solutions are thoroughly mixed using a vortex mixer. A stainless steel spatula is used to crush any particulate material remaining after extensive mixing. Vials are left overnight at room temperature, and then remixed to form the concentrated ethanol stock solutions. The presence of undissolved material is noted throughout this procedure.

[2] = test system: constitutively GA-deficient transgenic dwarf soybean line 719; test: Experiment I greenhouse test, seed imbibition, GA-deficient soybean; assay type: in vivo, Glycine max; set-up: Observation on Transgenic Line 719: key: −1: treated plants are shorter as compared to untreated plants; 0: treated plants had the same stature as untreated plants; 1: treated plants are slightly elongated as compared to untreated plants; 2: treated plants are moderately elongated as compared to untreated plants; 3: treated plants are highly elongated as compared to untreated plants; 4: treated plants are extremely elongated as compared to untreated plants; details: 0.25 mg/ml; for effect in both the constitutive transgenic dwarf and wild-type soybean lines: imbibition, lines 719 and A3237; for Observation on Transgenic Line 719: seeds imbibed 5 hours
Excerpt: Seeds are covered with 0.5″ of vermiculite.

[3] = test system: wild-type soybean line A3237; test: Experiment I greenhouse test, seed imbibition, wild-type soybean; details: 0.25 mg/ml; seeds imbibed 5 hours
Protocol: Compounds are first prepared as 25 mg/ml solutions in ethanol as described above, and then diluted into 40 ml of water to prepare the final 0.25 mg/ml treatment solutions. Visual observations on solubilities (milky, clear, etc.) of the treatment solutions are noted. The treatment solutions are divided into two 20 ml portions, each in 50 ml plastic centrifuge tubes. In addition to treating seeds with solutions containing the test compounds, untreated seeds and seeds imbibed in ethanol-water solution (300 μl ethanol in 30 mls of water) are also included in this experiment as controls. […]
(§1) After imbibition, seeds are removed from the test tubes, placed on wax paper to dry, and planted in bread pans containing farm soil amended with fertilizer at 20 seeds/pan. Seeds are covered with 0.5″ of vermiculite. Pans are transferred to the greenhouse, which had day/night temperatures of 86/68° F. (30/20° C.), and subirrigated. Illumination is at a light intensity of 300-400 μmolm^−2s^−1 photosynthetic photon flux; 16 hours light/8 hours dark. Subsequent waterings are also through sub-irrigation until the test is terminated three weeks later. Observations included the number of dwarf, intermediate, and tall plants; plant height; uniformity of rescue; and any visual effects.

[4] = test system: constitutively GA-deficient transgenic dwarf soybeans (line 719); test: Summary of first two greenhouse experiments, rescue of GA-deficient soybeans; assay type: in vivo, Glycine max; set-up: key: +: transgenic soybeans are rescued; 0: transgenic soybeans are not rescued
Protocol: (§2) Compounds are first prepared as 25 mg/ml solutions in ethanol as described above, and then diluted into 40 ml of water to prepare the final 0.25 mg/ml treatment solutions. Visual observations on solubilities (milky, clear, etc.) of the treatment solutions are noted. The treatment solutions are divided into two 20 ml portions, each in 50 ml plastic centrifuge tubes. In addition to treating seeds with solutions containing the test compounds, untreated seeds and seeds imbibed in ethanol-water solution (300 μl ethanol in 30 mls of water) are also included in this experiment as controls. In the latter case, 20 seeds are imbibed in 30 mls of solution for six hours.
as §1, with “Two soybean varieties are selected for testing: constitutively GA-deficient transgenic dwarf soybean line 719 (plasmid pMON29801, constitutive FMV promoter/asCPScc; which is a mixture of 719−2 and 719+17), and A3237, the wild-type parent material. […] After” for “After”
(§3) All compounds are tested at final concentrations of 0.25, 0.025, and 0.0025 mg/ml except for GA9, which is tested at 0.125, 0.0125, and 0.00125 mg/ml. (The compounds are tested in Experiment I at only one concentration, i.e., 0.25 mg/ml). Test tubes contained […] of ethanol solution per tube. Final volumes are made up to 30 ml with deionized water. After shaking, the treatment solutions (15 ml each) are transferred to each of two 50 ml test tubes. Treatments 1 to 27 are performed on wild-type line A3237; treatments 28 to 54 are performed on constitutively GA-deficient transgenic dwarf soybean line 719 (a mixture of 719−2 and 719+17). Twenty seeds are used in each treatment. Dry seed, ethanol/water-imbibed seed (1% ethanol in water, v/v), and water-imbibed seeds are included as controls. Seeds are imbibed for 6 hours in the test solutions, then planted in bread pans containing Metromix 350 (The Scotts Company, Marysville, Ohio), and covered with 0.5″ Metro-mix. Covered pans are transferred to the greenhouse and subirrigated. Illumination is at a light intensity of 300-400 μmolm^−2s^−1 photosynthetic photon flux; 16 hours light/8 hours dark. Subsequent waterings are also through sub-irrigation until the test is terminated three weeks later. Observations included the number of dwarf, intermediate, and tall plants; plant height; uniformity of rescue; and any visual effects. Digital photographs are also taken.

[5] = test system: GA-deficient transgenic soybean line 719 (R5); test: Hilum treatment of soybean seeds, seedling growth and development, GA-deficient soybean; assay type: in vivo, Glycine max; set-up: key to Emergence timing / Hypocotyl length (6 DAP) / 1st internode length (12 DAP) / 3rd internode length (20 DAP) / 2nd internode length (12 DAP): pos: emergence faster/stem segment longer than controls; 0: emergence timing/stem segment length similar to controls; neg: emergence slower/stem segment shorter than controls
Protocol: (§4) In the previous experiments, the effect of various GA compounds on transgenic, GA-deficient and wild-type soybean is evaluated by treating seeds with these compounds via imbibition. Several of these compounds are not completely soluble in water, which limited the interpretation of their utility in rescuing GA-deficient dwarf plants. The purpose of this experiment is to reevaluate selected, previously tested compounds, and additional compounds, by introducing them to the seed via the hilum. As shown by the results presented below, direct application of small quantities of GA compounds dissolved in an organic solvent to the hilum is an effective method of treating soybean seeds. As in the previously described experiments, comparison is made between activity on GA-deficient soybean seedlings and normal (wild-type) seedlings. […] soybean seeds are supplied by Asgrow Seed Company (Des Moines, Iowa). Seed of GA-deficient transgenic soybean line 719 is created by transformation of […] soybean with pMON29801 (FMV/antisense CPScc). Fifth generation seed (R5) is used for these experiments. […] When multiple droplets are applied, each 1 μl droplet is allowed to dry before subsequent droplets are added. Ethanol minus compound is used a treatment control. […] (29° C.) and 75° F. (24° C.), respectively. Emergence timing is measured by counting the number of emerged seedlings at different times after planting. Emergence is defined as the presence of cotyledons raised to soil level or above. […] To assess the ability of a seed treatment to deliver biological activity beyond the first internode, measurements are taken on selected treatments after prolonged growth and development.

wild-type A3237 soybean = test: Hilum treatment of soybean seeds, seedling growth and development, wild-type soybean; assay type: in vivo, Glycine max; set-up: key to Emergence timing / Hypocotyl length (6 DAP) / 1st internode length (12 DAP) / 3rd internode length (20 DAP): pos: emergence faster/stem segment longer than controls; 0: emergence timing/stem segment length similar to controls; neg: emergence slower/stem segment shorter than controls
Protocol: as §4

[6] = test system: constitutively GA-deficient transgenic dwarf soybean line 719; test: Experiment II second greenhouse test, seed imbibition, GA-deficient soybean; assay type: in vivo, Glycine max; details: seeds imbibed 6 hours
Protocol: as §3, with “(The” for “All compounds are tested at final concentrations of 0.25, 0.025, and 0.0025 mg/ml except for GA9, which is tested at 0.125, 0.0125, and 0.00125 mg/ml. (The”, “Treatments 1 to 27 are performed on wild-type line A3237; treatments 28 to 54 are performed on constitutively GA-deficient transgenic dwarf soybean line 719 (a mixture of 719−2 and 719+17).” left out

[7] = test system: wild-type soybeans (line A3237); test: Summary of first two greenhouse experiments, elongation of wild-type soybeans
Protocol: as §2
as §1, with “Two soybean varieties are selected for testing: constitutively GA-deficient transgenic dwarf soybean line 719 (plasmid pMON29801, constitutive FMV promoter/asCPScc; which is a mixture of 719−2 and 719+17), and A3237, the wild-type parent material. […] After” for “After”
as §3

[8] = 0.25 mg/ml solution (ethanol-water)
[9] = L719, hilum treatment, rate response
[10] = L719, hilum treatment, single rate per compound 8.3-16.5 μg/seed
[11] = single rate per compound 8.3-16.5 μg/seed
[12] = 0.0025 mg/ml solution (ethanol-water)
[13] = 0.025 mg/ml solution (ethanol-water)

Particulate material present, 100X Diln w/water [1] | solubility in water during imbibition [1] | Structure (SMILES) | effect in both the constitutive transgenic dwarf and wild-type soybean lines [2] | Observation on Transgenic Line 719 [2] | Observation on Wild-Type Line A3237 [3] | Rescue of GA-deficient soybeans [4, 8] | Significant Visual Observations on Line 719 ([6]; 0.0025 mg/ml) | Significant Visual Observations on Line 719 ([6]; 0.025 mg/ml) | Rescue of GA-deficient soybeans [4, 12] | Rescue of GA-deficient soybeans [4, 13] | Elongation of wild-type soybeans [7, 12] | Elongation of wild-type soybeans [7, 13] | Elongation of wild-type soybeans [7, 8] | also measured
YES | less soluble in water during imbibition | C=C1C[C@@]23CC[C@H]4[C@@](C)(CCC[C@@]4(C)C(=O)O)[C@@H]2CC[C@]1(O)C3 (single isomer, unassigned; ent-7) [steviol] | no substantial activity | 0 | 0 | 0 |  |  |  |  |  |  |  | Particulate material present, Initial Mixing ([1]; 25 mg/ml in absolute ethanol): YES; Lowest rate where biological activity is observed, 1st internode length (10 DAP) [5, 9]: >100 μg/seed; Lowest rate where biological activity is observed, emergence timing [5, 9]: 10 μg/seed; Lowest rate where biological activity is observed, hypocotyl length (5 DAP) [5, 9]: 1 μg/seed; 1st internode length (12 DAP) [5, 10]: 0; Emergence timing [5, 10]: pos; Hypocotyl length (6 DAP) [5, 10]: pos; activity on line 719 in terms of emergence timing and hypocotyl length ([5]; single rate, hilum, concentration that does not affect normal plant tissue): biologically active; Lowest rate where biological activity is observed, 1st internode length (10 DAP) (wild-type A3237 soybean; rate response): >100 μg/seed; Lowest rate where biological activity is observed, emergence timing (wild-type A3237 soybean; rate response): >100 μg/seed; Lowest rate where biological activity is observed, hypocotyl length (5 DAP) (wild-type A3237 soybean; rate response): >100 μg/seed; 1st internode length (12 DAP) (wild-type A3237 soybean; [11]): 0; Emergence timing (wild-type A3237 soybean; [11]): 0; Hypocotyl length (6 DAP) (wild-type A3237 soybean; [11]): 0
 |  | C=C1C[C@]23C[C@@]1(O)CC[C@H]2[C@@]12CC[C@H](O)[C@@](C)(C(=O)O1)[C@H]2[C@@H]3C(=O)O [GA1] | excessive elongation | 4 | 4 | + | Good rescue of dwarfs | Good rescue of dwarfs | + | + | − | + | + | 
 | less soluble in water during imbibition | C=C1C[C@]23C[C@H]1CC[C@H]2[C@@]12CC[C@H](O)[C@@](C)(C(=O)O1)[C@H]2[C@@H]3C(=O)OC [GA4 methyl ester] | slight to medium elongation | 1 | 1 | 0 |  |  |  |  |  |  |  | 
 |  | C=C1C[C@]23C[C@H]1CC[C@H]2[C@@]12CC[C@H](O)[C@@](C)(C(=O)O1)[C@H]2[C@@H]3C(=O)O [GA4] | slight to medium elongation | 2 | 2 | + |  |  |  |  |  |  | + | 
YES |  | C=C1C[C@]23C[C@H]1CC[C@H]2[C@@]12C=C[C@H](O)[C@@](C)(C(=O)O1)[C@H]2[C@@H]3C(=O)OC [GA7 methyl ester] | slight to medium elongation | 2 | 1 | 0 |  |  |  |  |  |  |  | 
 |  | C=C1C[C@]23C[C@@]1(O)CC[C@H]2[C@@]12CCC[C@@](C)(C(=O)O1)[C@H]2[C@@H]3C(=O)O [GA20] | excessive elongation | 4 | 4 | + | Good rescue of dwarfs | Good rescue of dwarfs | + | + | + | + | + | Significant Visual Observations on Line 719 ([6]; 0.25 mg/ml): Excessive elongation
